These are literature values, as cited in patent publication US10954181B2, “Process for selectively recovering a phenolic compound from feedstock comprising bio-crude and/or bio-oil” (Research Triangle Institute, priority 2018, dated 2021).

For one series the following is noted: 25° C., in water; phenolic compounds present in biocrude.
The term pKa denotes the negative logarithm of the acid dissociation constant. On to `Cc1cccc(O)c1C` [2,3-dimethylphenol], for which the “pKa at 25° C. (in water)” value is reported as 10.42.

On to `Cc1cc(C)c(O)cc1C` [2,4,5-trimethylphenol], for which the “pKa at 25° C. (in water)” value is recorded as 10.57.

`Cc1cc(C)c(O)c(C)c1` [2,4,6-trimethylphenol]: the “pKa at 25° C. (in water)” value is listed as 10.88.

For `Cc1ccc(O)c(C)c1` [2,4-dimethylphneol], the “pKa at 25° C. (in water)” value is 10.6.

As to `Cc1cccc(C)c1O` [2,6-dimethylphenol], the “pKa at 25° C. (in water)” value is 10.66.

`C=CCc1cc(C)ccc1O` [2-allyl-4-methylphenol]: the “pKa at 25° C. (in water)” value is given as 10.59.

For the compound `CCc1ccccc1O` [2-ethylphenol], the “pKa at 25° C. (in water)” value is 10.27.

With `Cc1cc(C)cc(O)c1` [3,5-dimethylphenol], the “pKa at 25° C. (in water)” value is on record as 10.38.

Turning to `CCc1cccc(O)c1` [3-ethylphenol], the “pKa at 25° C. (in water)” value is 9.9.

As for `Cc1ccc(O)c(O)c1` [4-methylcatechol], the “pKa at 25° C. (in water)” value is 9.91.

Regarding `CCCc1ccc(O)cc1` [4-propylphenol], the “pKa at 25° C. (in water)” value was 9.98.

Take `CCc1ccc(O)c(OC)c1` [Ethylguaiacol]: the “pKa at 25° C. (in water)” value is 10.3.

As to `C=CCc1ccc(O)c(OC)c1` [Eugenol], the “pKa at 25° C. (in water)” value is given as 10.19.

As for `COc1ccccc1O` [Guaiacol], the “pKa at 25° C. (in water)” value was 9.98.

In the case of `COc1cc(CC(C)=O)ccc1O` [Guaiacylacetone], the “pKa at 25° C. (in water)” value is 9.88.

On to `COc1cc(CC(=O)O)ccc1O` [Homovanillic acid], for which the “pKa at 25° C. (in water)” value is 4.36.

On to `O=C(CO)c1ccccc1` [Hydroxyacetophenone], for which the “pKa at 25° C. (in water)” value was 10.16.

With `CCCc1ccc(O)c(OC)c1` [Propylguaiacol (Dihydroeugenol), Propylguaiacol], the “pKa at 25° C. (in water)” value is 10.29.

Consider Benzenediol (catechol), for which the “pKa at 25° C. (in water)” value was 9.96.

Still in this series, the particulars now being: Table 1, chemical information of targeted methoxyphenols.
In the case of `CCc1ccc(O)c(OC)c1` [Ethylguaiacol], the pKa was 10.3.

For the compound `COc1ccccc1O` [Guaiacol], the pKa is listed as 9.98.

Consider `CCCc1ccc(O)c(OC)c1` [Propylguaiacol (Dihydroeugenol), Propylguaiacol], for which the pKa is recorded as 10.29.
